{"source": "patent EP0994713B1", "about": "“USE OF A 7alpha-METHYL-17alpha-ETHYNYL-ESTRANE DERIVATIVE FOR THE TREATMENT OF ATHEROSCLEROSIS” (Akzo Nobel N.V., priority 1997, dated 1998)", "type_in_all_cases": "in vivo, New Zealand White rabbits", "key": {"[1]": {"system": "female ovariectomized rabbits", "experiment": "Fatty streaks in the aortic arch (Sudan Red, image analysis)", "details": "for Fatty streak in aortic arch: cholesterol diet, OVX, necropsy at 20 weeks", "method": "(§1) The model is considered relevant to the human atherosclerotic process, because the cellular events occurring during the development of the atherosclerotic lesions during the atherogenic diet are similar to those observed in different stages of atherosclerotic processes in coronary arteries.\n(§2) An experiment was performed with 7 groups of sexually mature, virgin female New Zealand White rabbits (Harlan, Zeist, The Netherlands), age 7-9 months and weighing approximately 3 kg (number of […] per group: 13-14). During the acclimatization period the rabbits were fed a diet of standard commercial rabbit chow LKK20 (Hope Farms, Woerden, The Netherlands). Three weeks prior to the start of the experiment the animals were anaesthetized and underwent bilateral ovariectomy (OVX) or were sham operated. After three weeks, at the start of the experiment, the rabbits were randomized over the treatment groups. In all animals de-endothelialisation of a segment of the left carotid artery was applied by using the air-drying technique (Fishman, J.A. et al., \"Endothelial regeneration in the rat carotid artery and the significance of endothelial denudation in the pathogenesis of myointimal thickening\", Lab. Invest. 1975, 32, 339-351; and Lafont, A. et al., \"Restenosis and experimental angioplasty: Intimal, medial and adventitial changes associated with constructive remodeling\", Circulation Research, 1995, 76, 996-1002)\n(§3) The animals were randomly allocated into 7 experimental groups using a randomized block design. The groups were fed an atherogenic diet (commercial rabbit chow (LKK20) enriched with 0.4 grams cholesterol, 3.75 grams coconut oil and 3.75 grams peanut oil per 100 grams). One group was fed the standard rabbit chow (LKK20). Food intake was restricted to 80 grams daily.\n(§4) The treatments (Table I) were daily administered orally as a tablet, prepared as in Example 1. Groups 1, 2 and 3 were on a daily placebo treatment. Groups 4-5 were treated with 7α-methyl-17α-ethynyl-17β-hydroxy-estra-5(10)-en-3-one (OD-14; tibolone; 6 or 2 mg daily); group 6 with 17β-estradiol (4 mg daily). Group 7 was on treatment with 17β-estradiol decanoate (150 µg in 1 ml arachis oil injected subcutaneously once a week).\n(§5) During the experiment blood samples were drawn out of the central ear artery after sedation with Hypnorm (0.1 ml i.m.) (Janssen Pharmaceutics, Beerse, Belgium) before the daily treatment, at week 4,8,12,16 and 20, to monitor the plasma cholesterol levels and to measure, at week 17, plasma estradiol levels and plasma tibolone levels. Twenty weeks after the start of the experiment animals were anaesthetized by an i.m. injection of Hypnorm (0.5 ml/kg). After blood sampling the rabbits were killed by exsanguination and the aortic arch, uterus and carotid artery removed for further analyses.\n(§6) In addition to example 2 an additional experiment was performed with two lower doses of Org OD14 and a higher dose of estradiol decanoate. […] The procedures were identical to those in example 2.\n(§7) Three weeks prior to the start of the experiment the animals were ovariectomized. At the start of the experiment the carotid artery was de-endothelialised using the air-drying technique. The normal rabbit chow was replaced by the atherogenic diet except for the control group which received during the experiment the normal rabbit chow.\n(§8) The treatments (table II) of group 1, 2, 3 and 4 were daily administered orally as a tablet, prepared as in example 1. The doses of Org OD14 per tablet, however, were 0.6 mg and 0.15 mg respectively. Group 5 was on treatment with 17β-estradiol decanoate (300 µg in 1 ml arachis oil injected subcutaneously once a week). Twenty weeks after the start of the experiment was ended in the same manner as described in example 2.\nThe aortic arch was dissected free, opened longitudinally and fixed in 2% paraformaldehyde. The tissue was then stained for lipids using 0.3% (w/v) Sudan Red. Colour photographs were taken of all segments. […]"}, "[2]": {"experiment": "Plasma estradiol and plasma tibolone levels at week 17", "details": "rabbit, 6 mg per day", "method": "as §5\nThe plasma levels indicate that both modes of administration of estradiol lead to effective plasma levels. Using the human doses of estradiol and Org OD14 used for HRT treatment and corrected for the caloric intake it was expected that in the rabbit an oral dose of 4 mg estradiol is about equipotent with 6 mg Org OD14."}, "[3]": {"system": "female ovariectomized rabbits", "experiment": "Uterus weight (estrogenic activity), cholesterol fed rabbit model", "details": "for Uterus weight per 100 grams body weight: cholesterol diet, OVX, necropsy at 20 weeks", "method": "as §1, §2, §3, §4, §5, §6, §7, §8\nAfter 20 weeks of diet and of daily treatment, necropsy was performed to determine the accumulation of cholesterol and fatty streaks in the aortic arch and the advanced lesions in the carotid artery. […]"}, "[4]": {"system": "female ovariectomized rabbits", "experiment": "Intimal thickening (advanced lesions) in carotid artery after de-endothelialisation", "details": "for Advanced lesions in carotid artery: intimal surface: cholesterol diet, OVX, necropsy at 20 weeks", "method": "as §1, §2, §3, §4\nas §5, with “analyses. […]” for “analyses.”\nThe left (airdried) carotid artery was dissected and fixed in 2% paraformaldehyde containing 6.8% glucose. The right carotid artery was used as comparison. After fixation the tissue was divided in blocks with a length of 2 mm and embedded in paraffin (Paraplast plus®, Sherwood Medical Co, St. Louis, USA) using an automated tissue processor (Hypercenter XP, Shandon).\nTo measure intimal thickening (using image analysis) a specific staining method and a belonging image analysis application have been developed.\nMeasurements were performed on 2 µm transverse sections which were treated with elastase (Serva Feinbiochemica Gmbh, Heidelberg, Germany) prior to elastin staining with Lawson solution (Boom, Meppel, the Netherlands) and light green (Sigma). Subsequently sections were airdried and mounted in Pertex (Leica Gmbh, Nussloch, Germany).\nFor morphological study both methylene blue/Azur II and hemotoxylin/eosin stained (2 µm) transverse sections were used. Smooth muscle cells and macrophages were detected with respectively α-actin antibodies (Sigma) and anti-macrophage antibodies (RAM11, DAKO, Glostrup, Denmark). […]"}, "[5]": {"system": "female ovariectomized rabbits", "experiment": "Overall atherosclerotic lesion formation, cholesterol fed rabbit model", "details": "Example 3: Org OD14 0.6 mg orally daily; estradiol decanoate 300 µg s.c. weekly", "method": "as §1, §6, §7, §8\nIn example 3 we tested Org OD14 at two lower doses (0.6 and 0.15 mg orally once daily) and estradiol decanoate at a higher dose (300 µg s.c. once weekly). […]"}, "[6]": {"details": "Example 2, Group 4: 6 mg orally daily"}, "[7]": {"details": "Example 2, Group 5: 2 mg orally daily"}, "[8]": {"details": "Example 2: Org OD14 2 and 6 mg, E2 4 mg orally daily, E2D 150 µg s.c. weekly"}, "[9]": {"details": "Example 3: 0.15 mg orally once daily"}, "[10]": {"details": "Example 3: 0.6 mg orally once daily"}}}
{"smiles": "C#C[C@]1(O)CC[C@H]2[C@@H]3[C@H](C)CC4=C(CCC(=O)C4)[C@H]3CC[C@@]21C", "note": "[Org OD14, 7α-methyl-17α-ethynyl-17β-hydroxy-estra-5(10)-en-3-one]", "values": [{"measurement": "Fatty streak in aortic arch", "setting": "[1]; [6]", "result": "1.3 ± 0.8 % of arcus covered"}, {"measurement": "Fatty streak in aortic arch", "setting": "[1]; [7]", "result": "1.4 ± 0.7 % of arcus covered"}, {"measurement": "Fatty streak formation in the aortic arch (in words)", "setting": "[1]; [8]", "result": "(nearly) completely prevented the fatty streak formation"}, {"measurement": "Fatty streak in aortic arch", "setting": "[1]; [9]", "result": "23.5 ± 5.3 % of arcus covered"}, {"measurement": "Fatty streak in aortic arch", "setting": "[1]; [10]", "result": "5.9 ± 2.4 % of arcus covered"}, {"measurement": "plasma concentrations of Org OD14", "setting": "[2]", "result": "comparable to those obtained in women with the clinical dose of 2.5 mg"}, {"measurement": "Uterus weight per 100 grams body weight", "setting": "[3]; [6]", "result": "0.24 ±0.06", "unit": "per 100 grams body weight"}, {"measurement": "Uterus weight per 100 grams body weight", "setting": "[3]; [7]", "result": "0.29 ±0.03", "unit": "per 100 grams body weight"}, {"measurement": "uterus weight increase (estrogenic activity, in words)", "setting": "[3]; Example 2: Org OD14 2 and 6 mg per day", "result": "to a similar extent as both estradiol treatments"}, {"measurement": "increase of uterus weight", "setting": "[3]; Example 3, text: Org OD14 (0.15 mg dose per Table IV), versus placebo 0.054", "result": 144, "unit": "%"}, {"measurement": "uterus weight", "setting": "[3]; Example 3, text: Org OD14 (0.15 mg dose per Table IV), placebo 0.054", "result": "0.132 grams per 100 grams body weigh"}, {"measurement": "Uterus weight per 100 grams body weight", "setting": "[3]; [9]", "result": "0.132 ±0.013", "unit": "per 100 grams body weight"}, {"measurement": "Uterus weight per 100 grams body weight", "setting": "[3]; [10]", "result": "0.224 ±0.016", "unit": "per 100 grams body weight"}, {"measurement": "Advanced lesions in carotid artery: intimal surface", "setting": "[4]; [6]", "result": "0.13 ± 0.03 * mm^2"}, {"measurement": "Advanced lesions in carotid artery: intimal surface", "setting": "[4]; [7]", "result": "0.14 ± 0.02 * mm^2"}, {"measurement": "Histology of the lesions", "setting": "[4]; Example 2, carotid artery, placebo on cholesterol diet: smooth muscle cells and foam cells", "result": "the lesions consisted only of smooth muscle cells"}, {"measurement": "advanced lesion formation following mechanical de-endothelisation (in words)", "setting": "[4]; [8]", "result": "strongly inhibited the formation of advanced lesions"}, {"measurement": "Advanced lesions in carotid artery: intimal surface", "setting": "[4]; [9]", "result": "0.24 ± 0.05", "unit": "mm^2"}, {"measurement": "Advanced lesions in carotid artery: intimal surface", "setting": "[4]; [10]", "result": "0.14 ± 0.01 * mm^2"}, {"measurement": "atherosclerotic lesion formation (in words)", "setting": "[5]", "result": "still nearly completely prevented"}]}
